Data reported in ChEMBL document CHEMBL5360671, “Targeting KRASG12D Mutations: Discovery of Small Molecule Inhibitors for the Potential Treatment of Intractable Cancers” (ACS Med Chem Lett, 2023).

Legend:
[1] = Oral bioavailability in Balb/c mouse at 30 mg/kg measured for 24 hrs by UPLC-MS/MS analysis; type: ADME, organism-based; details: in vivo
[2] = Drug absorption in Balb/c mouse assessed as fraction of drug absorbed into portal vein at 1 mg/kg, […] measured for 24 hrs by UPLC-MS/MS analysis; type: ADME, organism-based; details: in vivo
[3] = target: Mitogen-activated protein kinase; ERK1/ERK2 (Homo sapiens, UniProt P27361+P28482); assay: Inhibition of ERK1/2 phosphorylation in human PANC-1 cells incubated for 3 hrs; type: cell-based

C#Cc1c(F)ccc2cccc(-c3nc4c5c(nc(OC[C@@]67CCCN6C[C@H](F)C7)nc5c3F)N3C[C@H]5CC[C@H](N5)[C@H]3CO4)c12
bioavailability [1]: 37.7%
FaFg [2]: 54%
IC50 [3]: 2 nM

Oc1cc(Cl)c(C2CC2)c(-c2nc3c4c(nc(OC[C@@]56CCCN5C[C@H](F)C6)nc4c2F)N2CC4CCC(N4)C2CO3)c1 (some centres undefined)
IC50 [3]: 7 nM

Oc1cc(-c2nc3c4c(nc(OC[C@@]56CCCN5C[C@H](F)C6)nc4c2F)N2C[C@H]4CC[C@H](N4)[C@H]2CO3)c2c(Cl)cccc2c1
IC50 [3]: 5 nM

Oc1cc(-c2nc3c4c(nc(OC[C@@]56CCCN5C[C@H](F)C6)nc4c2F)N2CC4CCC(N4)C2CO3)c2c(Cl)cccc2c1 (some centres undefined)
IC50 [3]: 33 nM

C#Cc1cccc2cccc(-c3nc4c5c(nc(OC[C@@]67CCCN6C[C@H](F)C7)nc5c3F)N3C[C@H]5CC[C@H](N5)[C@H]3CO4)c12
bioavailability [1]: 39.2%
FaFg [2]: 56.6%
IC50 [3]: 10 nM

C#Cc1c(F)ccc2cccc(-c3nc4c5c(nc(OC[C@@]67CCCN6C[C@H](F)C7)nc5c3F)N3CC5CCC(N5)C3CO4)c12 (some centres undefined)
IC50 [3]: 9 nM

CCc1c(F)ccc2cc(O)cc(-c3nc4c5c(nc(OC[C@@]67CCCN6C[C@H](F)C7)nc5c3F)N3C[C@H]5CC[C@H](N5)[C@H]3CO4)c12
IC50 [3]: 0.76 nM

C#Cc1c(F)ccc2cc(O)cc(-c3ncc4c(N5C[C@H]6CC[C@@H](C5)N6)nc(OC[C@@]56CCCN5C[C@H](F)C6)nc4c3F)c12 [MRTX-1133]
bioavailability [1]: 0.66%
FaFg [2]: 0.95%
IC50 [3]: 2.3 nM
